Laboratory results: the NIST ThermoML archive (doi:10.1021/je8008073)
Numbers after ± are expanded uncertainties.

Experiment: wn = mass fraction of the nth substance listed
Settings: Liquid; for mass density: Vibrating tube method; for viscosity: Falling or rolling sphere viscometry

CC(C)Cc1ccccc1 [(2-methylpropyl)benzene] + c1ccc2c(c1)CCCC2
Settings | mass density [kg/m3] | viscosity [mPa·s]
293.15 K, 100 kPa, w2 = 0.5 | 907.9 ± 1 | –
293.15 K, 2000 kPa, w2 = 0.5 | 909.1 ± 1 | –
293.15 K, 4000 kPa, w2 = 0.5 | 910.3 ± 1 | –
293.15 K, 6000 kPa, w2 = 0.5 | 911.6 ± 1 | –
293.15 K, 8000 kPa, w2 = 0.5 | 913 ± 1 | –
293.15 K, 10000 kPa, w2 = 0.5 | 914.3 ± 1 | –
293.15 K, 12000 kPa, w2 = 0.5 | 915.4 ± 1 | –
293.15 K, 14000 kPa, w2 = 0.5 | 916.6 ± 1 | –
293.15 K, 16000 kPa, w2 = 0.5 | 917.7 ± 1 | –
293.15 K, 18000 kPa, w2 = 0.5 | 918.8 ± 1 | –
293.15 K, 20000 kPa, w2 = 0.5 | 920.1 ± 1 | –
295.65 K, 100 kPa, w2 = 0.5 | 905.7 ± 1 | –
295.65 K, 2000 kPa, w2 = 0.5 | 906.8 ± 1 | –
295.65 K, 4000 kPa, w2 = 0.5 | 908.1 ± 1 | –
295.65 K, 6000 kPa, w2 = 0.5 | 909.3 ± 1 | –
295.65 K, 8000 kPa, w2 = 0.5 | 910.6 ± 1 | –
295.65 K, 10000 kPa, w2 = 0.5 | 911.9 ± 1 | –
295.65 K, 12000 kPa, w2 = 0.5 | 913.1 ± 1 | –
295.65 K, 14000 kPa, w2 = 0.5 | 914.3 ± 1 | –
295.65 K, 16000 kPa, w2 = 0.5 | 915.4 ± 1 | –
295.65 K, 18000 kPa, w2 = 0.5 | 916.6 ± 1 | –
295.65 K, 20000 kPa, w2 = 0.5 | 917.7 ± 1 | –
298.15 K, 100 kPa, w2 = 0.48 | 901.3 ± 1 | –
298.15 K, 100 kPa, w2 = 0.49 | 902.5 ± 1 | –
298.15 K, 100 kPa, w2 = 0.5 | 903.6 ± 1 | 1.33 ± 0.05
298.15 K, 100 kPa, w2 = 0.51 | 905 ± 1 | –
298.15 K, 100 kPa, w2 = 0.52 | 906 ± 1 | –
298.15 K, 2000 kPa, w2 = 0.48 | 902.6 ± 1 | –
298.15 K, 2000 kPa, w2 = 0.49 | 903.8 ± 1 | –
298.15 K, 2000 kPa, w2 = 0.5 | 904.7 ± 1 | –
298.15 K, 2000 kPa, w2 = 0.51 | 906.2 ± 1 | –
298.15 K, 2000 kPa, w2 = 0.52 | 907.3 ± 1 | –
298.15 K, 4000 kPa, w2 = 0.48 | 904 ± 1 | –
298.15 K, 4000 kPa, w2 = 0.49 | 905.1 ± 1 | –
298.15 K, 4000 kPa, w2 = 0.5 | 906.1 ± 1 | 1.37 ± 0.06
298.15 K, 4000 kPa, w2 = 0.51 | 907.6 ± 1 | –
298.15 K, 4000 kPa, w2 = 0.52 | 908.8 ± 1 | –
298.15 K, 6000 kPa, w2 = 0.48 | 905.3 ± 1 | –
298.15 K, 6000 kPa, w2 = 0.49 | 906.4 ± 1 | –
298.15 K, 6000 kPa, w2 = 0.5 | 907.5 ± 1 | –
298.15 K, 6000 kPa, w2 = 0.51 | 908.8 ± 1 | –
298.15 K, 6000 kPa, w2 = 0.52 | 910 ± 1 | –
298.15 K, 8000 kPa, w2 = 0.48 | 906.6 ± 1 | –
298.15 K, 8000 kPa, w2 = 0.49 | 907.7 ± 1 | –
298.15 K, 8000 kPa, w2 = 0.5 | 908.8 ± 1 | –
298.15 K, 8000 kPa, w2 = 0.51 | 910.1 ± 1 | –
298.15 K, 8000 kPa, w2 = 0.52 | 911.2 ± 1 | –
298.15 K, 10000 kPa, w2 = 0.48 | 907.8 ± 1 | –
298.15 K, 10000 kPa, w2 = 0.49 | 909 ± 1 | –
298.15 K, 10000 kPa, w2 = 0.5 | 910.1 ± 1 | 1.43 ± 0.06
298.15 K, 10000 kPa, w2 = 0.51 | 911.2 ± 1 | –
298.15 K, 10000 kPa, w2 = 0.52 | 912.4 ± 1 | –
298.15 K, 12000 kPa, w2 = 0.48 | 909 ± 1 | –
298.15 K, 12000 kPa, w2 = 0.49 | 910.2 ± 1 | –
298.15 K, 12000 kPa, w2 = 0.5 | 911.3 ± 1 | –
298.15 K, 12000 kPa, w2 = 0.51 | 912.5 ± 1 | –
298.15 K, 12000 kPa, w2 = 0.52 | 913.6 ± 1 | –
298.15 K, 14000 kPa, w2 = 0.48 | 910.2 ± 1 | –
298.15 K, 14000 kPa, w2 = 0.49 | 911.5 ± 1 | –
298.15 K, 14000 kPa, w2 = 0.5 | 912.5 ± 1 | –
298.15 K, 14000 kPa, w2 = 0.51 | 913.7 ± 1 | –
298.15 K, 14000 kPa, w2 = 0.52 | 914.8 ± 1 | –
298.15 K, 16000 kPa, w2 = 0.48 | 911.4 ± 1 | –
298.15 K, 16000 kPa, w2 = 0.49 | 912.6 ± 1 | –
298.15 K, 16000 kPa, w2 = 0.5 | 913.7 ± 1 | –
298.15 K, 16000 kPa, w2 = 0.51 | 915 ± 1 | –
298.15 K, 16000 kPa, w2 = 0.52 | 916 ± 1 | –
298.15 K, 18000 kPa, w2 = 0.48 | 912.6 ± 1 | –
298.15 K, 18000 kPa, w2 = 0.49 | 913.7 ± 1 | –
298.15 K, 18000 kPa, w2 = 0.5 | 914.9 ± 1 | –
298.15 K, 18000 kPa, w2 = 0.51 | 916.1 ± 1 | –
298.15 K, 18000 kPa, w2 = 0.52 | 917.1 ± 1 | –
298.15 K, 20000 kPa, w2 = 0.48 | 913.8 ± 1 | –
298.15 K, 20000 kPa, w2 = 0.49 | 914.9 ± 1 | –
298.15 K, 20000 kPa, w2 = 0.5 | 916.1 ± 1 | –
298.15 K, 20000 kPa, w2 = 0.51 | 917.2 ± 1 | –
298.15 K, 20000 kPa, w2 = 0.52 | 918.2 ± 1 | –
300.65 K, 100 kPa, w2 = 0.5 | 901.5 ± 1 | –
300.65 K, 2000 kPa, w2 = 0.5 | 902.9 ± 1 | –
300.65 K, 4000 kPa, w2 = 0.5 | 904.2 ± 1 | –
300.65 K, 6000 kPa, w2 = 0.5 | 905.4 ± 1 | –
300.65 K, 8000 kPa, w2 = 0.5 | 906.8 ± 1 | –
300.65 K, 10000 kPa, w2 = 0.5 | 908 ± 1 | –
300.65 K, 12000 kPa, w2 = 0.5 | 909.2 ± 1 | –
300.65 K, 14000 kPa, w2 = 0.5 | 910.4 ± 1 | –
300.65 K, 16000 kPa, w2 = 0.5 | 911.6 ± 1 | –
300.65 K, 18000 kPa, w2 = 0.5 | 912.8 ± 1 | –
300.65 K, 20000 kPa, w2 = 0.5 | 914 ± 1 | –
303.15 K, 100 kPa, w2 = 0.5 | 900 ± 1 | –
303.15 K, 2000 kPa, w2 = 0.5 | 901.3 ± 1 | –
303.15 K, 4000 kPa, w2 = 0.5 | 902.6 ± 1 | –
303.15 K, 6000 kPa, w2 = 0.5 | 904 ± 1 | –
303.15 K, 8000 kPa, w2 = 0.5 | 905.3 ± 1 | –
303.15 K, 10000 kPa, w2 = 0.5 | 906.5 ± 1 | –
303.15 K, 12000 kPa, w2 = 0.5 | 907.8 ± 1 | –
303.15 K, 14000 kPa, w2 = 0.5 | 909 ± 1 | –
303.15 K, 16000 kPa, w2 = 0.5 | 910.3 ± 1 | –
303.15 K, 18000 kPa, w2 = 0.5 | 911.4 ± 1 | –
303.15 K, 20000 kPa, w2 = 0.5 | 912.6 ± 1 | –
